Source: ChEMBL document CHEMBL1143883, “Fluoroolefins as amide bond mimics in dipeptidyl peptidase IV inhibitors” (Bioorg Med Chem Lett, 2008)

Assays:
[1] = Plasma clearance in rat at 1 mg/kg, iv or 2 mg/kg, po; type: ADME, organism-based
[2] = Half life in rat at 1 mg/kg, iv or 2 mg/kg, po; type: ADME, organism-based; conditions: in vivo
[3] = Metabolic stability in rat liver microsomes after 60 mins in presence of NADPH; type: ADME, Microsome; conditions: read-out: Stability
[4] = Oral bioavailability in rat at 2 mg/kg; type: ADME, organism-based; conditions: in vivo
[5] = Metabolic stability in rat hepatocytes after 60 mins; type: ADME, cell-based, Hepatocyte; conditions: read-out: Stability
[6] = Mean residence time in rat at 1 mg/kg, iv or 2 mg/kg, po; type: ADME, organism-based; conditions: in vivo
[7] = biological target: Voltage-gated inwardly rectifying potassium channel KCNH2 (Homo sapiens, UniProt Q12809)
[8] = test system: Liver microsomes; test: Metabolic stability in human liver microsome assessed as covalent binding per mg of protein; type: ADME
[9] = test system: Liver microsomes; test: Metabolic stability in rat liver microsome assessed as covalent binding per mg of protein; type: ADME

Sequence of Voltage-gated inwardly rectifying potassium channel KCNH2 (Q12809 whole entry): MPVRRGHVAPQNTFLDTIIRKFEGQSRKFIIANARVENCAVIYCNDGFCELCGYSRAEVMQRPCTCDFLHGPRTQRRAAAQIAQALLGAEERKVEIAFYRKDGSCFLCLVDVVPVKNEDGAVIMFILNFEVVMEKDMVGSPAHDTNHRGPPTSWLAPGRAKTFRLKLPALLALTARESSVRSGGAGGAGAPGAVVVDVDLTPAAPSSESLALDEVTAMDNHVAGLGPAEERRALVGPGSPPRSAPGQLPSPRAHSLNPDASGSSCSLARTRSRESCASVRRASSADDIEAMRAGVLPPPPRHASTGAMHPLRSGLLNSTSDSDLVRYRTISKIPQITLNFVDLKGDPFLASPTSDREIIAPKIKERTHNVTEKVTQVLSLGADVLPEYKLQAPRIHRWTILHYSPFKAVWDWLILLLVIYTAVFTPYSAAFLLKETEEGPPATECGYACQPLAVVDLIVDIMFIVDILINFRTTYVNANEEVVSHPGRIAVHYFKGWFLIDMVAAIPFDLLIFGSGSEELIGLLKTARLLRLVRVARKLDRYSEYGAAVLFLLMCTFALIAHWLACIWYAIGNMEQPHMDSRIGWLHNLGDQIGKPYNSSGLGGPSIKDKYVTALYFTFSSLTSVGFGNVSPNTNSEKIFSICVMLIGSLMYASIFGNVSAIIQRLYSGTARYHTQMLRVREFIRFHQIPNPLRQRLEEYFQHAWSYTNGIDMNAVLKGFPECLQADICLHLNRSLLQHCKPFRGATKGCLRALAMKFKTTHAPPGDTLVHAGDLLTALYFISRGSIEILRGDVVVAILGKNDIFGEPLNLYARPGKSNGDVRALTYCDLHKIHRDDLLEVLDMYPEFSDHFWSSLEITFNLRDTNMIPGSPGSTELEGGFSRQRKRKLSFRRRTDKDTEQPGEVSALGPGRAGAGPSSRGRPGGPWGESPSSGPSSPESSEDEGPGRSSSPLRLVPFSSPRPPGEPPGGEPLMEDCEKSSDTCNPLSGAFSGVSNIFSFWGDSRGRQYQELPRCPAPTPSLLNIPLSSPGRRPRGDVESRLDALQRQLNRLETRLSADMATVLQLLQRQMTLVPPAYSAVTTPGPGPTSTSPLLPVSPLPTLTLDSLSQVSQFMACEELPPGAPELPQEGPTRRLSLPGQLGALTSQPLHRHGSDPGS

Structure (SMILES) | clearance [1] | half-life [2] | remaining at 1 h [3] | bioavailability [4] | remaining at 1 h [5] | MRT [6] | Stability [8] | Stability [9] | IC50 [7]
CC(c1nc(-c2ccc(S(C)(=O)=O)cc2Cl)no1)[C@H](N)C(F)=C1CCCC1.O=C(O)C(F)(F)F (stereo partly drawn) | 20 mL/min/kg | – | – | 62% | 3% | 2 h | – | – | –
CS(=O)(=O)c1ccc(-c2noc([C@@H](CC3CC3)[C@H](N)C(F)=C3CCCC3)n2)c(Cl)c1.O=C(O)C(F)(F)F | 54 mL/min/kg | 1.5 h | – | 1% | – | – | – | – | –
C[C@H](c1nc(-c2ccc(S(=O)(=O)C[14CH3])cc2Cl)no1)[C@H](N)C(F)=C1CCCC1.O=C(O)C(F)(F)F | – | – | – | – | – | – | 287 pmol/mg | 662 pmol/mg | –

Further lines, with some results ahead:

clearance [1] | half-life [2] | remaining at 1 h [3] | bioavailability [4] | remaining at 1 h [5] | MRT [6] | Stability [8] | Stability [9] | Structure (SMILES) | IC50 [7]
6 mL/min/kg | 0.86 h | 56% | 27% | 88% | – | – | – | C[C@H](c1nc(-c2ccc(S(C)(=O)=O)cc2Cl)no1)[C@H](N)C(=O)N1CCCC1.O=C(O)C(F)(F)F | –
51 mL/min/kg | 1.6 h | – | 4% | – | – | – | – | CS(=O)(=O)c1ccc(-c2noc([C@@H](CCO)[C@H](N)C(F)=C3CCCC3)n2)c(Cl)c1.O=C(O)C(F)(F)F | 47 µM
